Test results published in US20090117167A1 (AlgoRx, priority 2002, published 2009).
Several values for one entry are separate records, joined by “and”; a condition that tells them apart may be missing. Equal values may be shown once.

Key:
[1] = system: animal models of inflammatory pain (formalin test); conditions: administered locally; cited from earlier work
[2] = system: animal models of neuropathic pain (spinal nerve ligation); conditions: administered locally; cited from earlier work
[3] = system: subjects with osteoarthritis of the knee; assay: Osteoarthritis of the knee safety study: safety and tolerability of intra-articular capsaicin; type: in vivo, human; conditions: for patients reporting transient burning pain / post injection hyperalgesia after instillation: 4 subjects
Protocol: The primary objective of the study was to evaluate the safety and tolerability of intra-articular capsaicin, when co-administered with intra-articular local anesthetic, compared to placebo, in subjects with end-stage osteoarthritis of the knee, already scheduled to receive knee replacements.
The study was designed to include 16 evaluation subjects. […] Sixteen subjects completed the study.
Patients were treated randomly and in double-blind fashion in four treatment groups, with each group having a progressively longer interval between the intra-articular administration of study medication and subsequent total knee replacement (2, 4, 7, and 14 days). […] Gross and microscopic pathology analysis was completed for each treatment group before the next treatment group was treated.
(§1) Each subject had 3 study visits: a Screening Day (Day −7 to −1), the Treatment Day (Day 0), and a Post-Treatment Day (scheduled for Day +2, +4, +7, or +14). On the Treatment Day the subject was randomized, pre-treatment evaluation was performed. The patients were brought into the procedure room, and a VAS pain score was taken (0 mm-no pain, 100 mm-extreme pain). Once the patient had marked his or her pain on the card, he/she was prepped for knee cannulation. Once the cannula was placed, the patient received by intra-articular infiltration, 3 mg/kg (maximum dose of 200 mg) of 2% lignocaine into the knee scheduled to be replaced.
(§2) VAS pain scores as well as verbal reports were taken immediately following administration, as well as prior to knee replacement surgery. No subjects discontinued from the study due to adverse events.

[4] = set-up: species or system human; conditions: in vivo
Protocol: The pharmacokinetic parameters of Cmax, Tmax, AUC(0-tlast) and t½ were evaluated.

[5] = system: subjects with osteoarthritis of the knee; assay: Osteoarthritis of the knee safety study: VAS pain score at the target knee; type: in vivo, human
Protocol: as §1, §2
On the Post-Treatment Day, study evaluation was performed followed by the scheduled knee replacement, with intra-operative bone and soft tissue biopsies performed for subsequent examination. […] This therefore left the 3 placebo and 9 active patients from the 4 day, 7 day, and 14 day cohorts.

[6] = system: subjects undergoing transpositional osteotomy (bunionectomy); assay: Bunionectomy efficacy study: VAS pain score and rescue medication; type: in vivo, human; conditions: for VAS pain score at operation site: 1000 μg into wound, mean +/- SEM, n = 11
Protocol: The primary efficacy endpoint was the proportion of subjects in each treatment group requiring opioid analgesia in the first 24 hours post-operatively. The proportions were compared amongst treatment groups using the Cochran-Haenszel test. Secondary efficacy end points included: i) proportion of subjects in each treatment group requiring opioid analgesia in the first 36 hour period post-operatively (Similarly, the proportions were compared amongst treatment groups using the Cochran-Haenszel test); ii) proportion of subjects in each treatment group requiring opioid analgesia in the 10 day period post-operatively (Similarly, the proportions were compared amongst treatment groups using the Cochran-Haenszel test); iii) time to first usage of opioid analgesia in each treatment group (a survival analysis approach will be used: the product-limit (Kaplan-Meier) method will be applied to time to first usage of opioid analgesia. The median time to first usage of opioid analgesia will be estimated in both treatment groups. Pairwise comparisons will be performed to test for equality of the survival curves between the 2 treatment groups using both the log-rank and the Wilcoxon test); iv) total usage of analgesia in each treatment group (the total usage of analgesia will be compared by an analysis of variance with treatment and center as independent variables. A pairwise comparison will be performed between the treatment groups); and v) VAS assessment of pain at the site of operation in each treatment group (The VAS score at each time point will be compared by an analysis of variance with treatment and center as independent variables. A pairwise comparison will be performed between the treatment groups). […] The efficacy analysis was performed on the data obtained ten days postoperatively. The safety analysis was performed based on the safety data for the entire study, including the 6 week and 12 week follow-up periods. The blind was broken at the time the efficacy analysis was performed. However, the individual treatment assignment was available to the statistical analysis group only. All other personnel involved in the study, including the Investigator, study monitor and proprietary staff, remained blinded until the entire study was completed.
The study was designed to include 40 evaluation subjects. […] Each subject had six (6) study visits: a Screening Day (Day −28 to −1), an Operation Day (Day 0), and four (4) Follow-up visits (scheduled for Days 3, 10 and weeks 6 and 12).
On Operation Day (Day 0) the following was performed: a) Pre-operation: Prior to the initiation of an ankle block, inclusion/exclusion criteria assessment was performed. […] Immediately prior to wound closure, the Investigator slowly dripped the study medication (4 mL) from a syringe into the wound, ensuring even tissue exposure. The wound was then be closed according to normal practices and procedures.
In the 24 hours following administration of study medication, vital signs (supine pulse rate and blood pressure) were recorded at 1, 2, 4 and 24 hours post administration. VAS assessment of pain at the operation site was performed at 1, 4, 8, 12 and 24 hours post administration. In those instances where VAS measurements coincide with blood sampling procedures, the VAS assessment was performed first. […] The quantity of each blood sample was 10 mL. Laboratory safety assessments, e.g., haematology, biochemistry, urinalysis were performed at 24 hours post administration. Adverse events were spontaneously reported by the subject and recorded. Rescue analgesia medication was provided to the subject if required (initially diclofenac 50 mg, repeated at 8 hourly intervals if necessary). When diclofenac was judged by the Investigator to provide inadequate pain relief then the subject was provided with alfentanil 1 mg, repeated at 6 hourly intervals, if necessary.

[7] = organic solvents; cited from earlier work
rats = conditions: systemic, cited from earlier work

SMILES: CN(C)CCC=C1c2ccccc2CCc2ccccc21 [amitriptyline]
- local antinociceptive action [1]: produced local antinociceptive actions
- local antinociceptive action [2]: produced local antinociceptive actions

SMILES: CNCCCN1c2ccccc2CCc2ccccc21 [desipramine]
- local antinociceptive action [1]: produced local antinociceptive actions
- local antinociceptive action [2]: produced local antinociceptive actions

SMILES: COc1cc(CNC(=O)CCCC/C=C/C(C)C)ccc1O [purified capsaicin, N-(4-hydroxy-3-methoxybenzyl)-8-methylnon-trans-6-enamide]
- patients reporting transient burning pain / post injection hyperalgesia after instillation ([3]; 10 μg intra-articular after 2% lignocaine): no subjects
- patients reporting transient burning pain / post injection hyperalgesia after instillation ([3]; 10 μg intra-articular after 2% lignocaine, listed as capsaicin): 0 of 4
- duration of post-administration (hyper) algesic pain ([3]; 100 μg dose group, individual subject): 9 min
- patients reporting transient burning pain / post injection hyperalgesia after instillation ([3]; 100 μg intra-articular after 2% lignocaine): 1
- patients reporting transient burning pain / post injection hyperalgesia after instillation ([3]; 100 μg intra-articular after 2% lignocaine, listed as capsaicin): 1 of 4
- patients reporting transient burning pain / post injection hyperalgesia after instillation ([3]; 300 μg intra-articular after 2% lignocaine): 4
- patients reporting transient burning pain / post injection hyperalgesia after instillation ([3]; 300 μg intra-articular after 2% lignocaine, listed as capsaicin): 4 of 4
- effects on laboratory safety parameters or vital signs ([3]; 10-300 μg): no treatment related effects
- effects on soft tissue, cartilage, or bone upon histopathological examination ([3]; 10-300 μg): no treatment related effects
- signs of erythema, edema, or hemorrhage at the site of injection ([3]; 10-300 μg): no treatment related signs
- systemic side effects ([3]; 10-300 μg): No treatment related systemic side effects
- average duration of hyperalgesia ([3]; all cases): less than thirty minutes
- gross and microscopic pathology ([3]; knee replaced 2-14 days after dosing): normal
- plasma concentrations compared with 100 μg or 300 μg dose groups [4]: clearly lower
- VAS reduction, prior to administration vs day of surgery ([5]; 9 active patients of 4, 7 and 14 day cohorts, 10-300 μg pooled): 62±14%
- median decrease from baseline to pre-operative time point in VAS for pain at target knee vs placebo ([5]; all 3 capsaicin dose groups): substantially greater
- treatment related indication of efficacy (VAS) ([5]; any of the dose levels 10, 100, 300 μg): No clear treatment related indication of efficacy
- effect on pain score and use of rescue ([6]; 1000 μg into the wound prior to wound closure): reduced both pain score as well as the use of rescue
- time at which subject required rescue ([6]; 1000 μg, individual subjects): 1 h and 4 h and 5 h and 8 h and 12 h
- VAS pain score at operation site ([6]; 8 hr): 5.5 +/− 2.3
- VAS pain score at operation site ([6]; 12 hr): 8.2 +/− 3.8
- VAS pain score at operation site ([6]; 24 hr): 1.9 +/− 1.0
- VAS pain score at operation site ([6]; 48 hr): 5.9 +/− 2.5
- solubility in alcohol, ether, benzene and chloroform [7]: freely soluble
- effect on pain threshold (rats; final doses 50 mg/kg or greater): pain threshold elevated
- effect on radiation induced hyperalgesia and pain threshold (rats; final doses of 25 mg/kg or less, prior to ultra violet radiation): prevented radiation induced hyperalgesia, but did not elevate the pain threshold above normal range
